The values below come from patent publication US20220323380A1, “DRUG COMBINATION FOR USE IN THE TREATMENT OF INFLAMMATORY DISEASES” (ISANAS AG, priority 2019, published 2022).

For data set [1] the following is noted: humans, compared with MK-4 (Sato 2012); cited from earlier work.
The conditions of data set [2]: in vivo; cited from earlier work.
Data set [3] deals with patient suffering from MS. As to conditions: daily 300 mg bupropion over four weeks, MRI after three months, MS patient with depression; cited from earlier work.
Data set [4] deals with MS patients. As to conditions: cited from earlier work.
The test system of data set [5] is PC12D cells. The following applies: cell cultures (Tsang 2002); cited from earlier work.
Data set [6] deals with EAE rat model. The following applies: cited from earlier work.
For data set [7], the system named is MS-patients. Kind of data set: Treatment of MS patients with the triple combination (case reports, MS score). The format is in vivo, human. As to conditions: Example 2: one MS patient, own words.
From the text: The scoring ranges from zero to ten points and is the sum of the physical score and cognitive score. Attributing half points was allowed to better cover the full scale and subtlety of MS symptoms.

For `CC(C)=CCC/C(C)=C/CC/C(C)=C/CC/C(C)=C/CC/C(C)=C/CC/C(C)=C/CC/C(C)=C/CC1=C(C)C(=O)c2ccccc2C1=O` [MK-7], the “bioavailability after oral intake” value in data set [1] was “much higher bioavailability after oral intake than MK-4”.

Consider `CC1=CC(=O)c2ccccc2C1=O` [VK3, 2-methylnaphthalene-1,4-dione], for which, in data set [2], the “reason for discontinued sales as prescription drug” value was “adverse effects and liver toxicity”.

For the molecule `CC(NC(C)(C)C)C(=O)c1cccc(Cl)c1` (centres unmarked) [bupropion], the “MRI analysis of lesions” value in data set [3] is given as “rather showed a reduction of the lesions than a progression”.

For the molecule `C=C1CC[C@H](O)C/C1=C/C=C1\CCC[C@]2(C)[C@@H]([C@H](C)CCCC(C)C)CC[C@@H]12` [vitamin D3, cholecalciferol], the “correlation with treatment effect in MS” value in data set [4] (meta-analysis (Steinwart 2018), weekly dosage of 20,000 IU D3) is listed as “did not provide any relevant correlation with treatment effect”.

Take `CC1=C(C/C=C(\C)CCC[C@H](C)CCC[C@H](C)CCCC(C)C)C(=O)c2ccccc2C1=O` [vitamin K1, phylloquinone]: in data set [5], the “nerve growth factor-mediated neurite outgrowth” value is recorded as “promoting activity”.

Take Vitamin D: in data set [4] (meta-analysis Zheng 2018), the “EDSS scores and annual relapse rate (ARR)” value is listed as “no therapeutic effect”. In addition, the “recurrence of relapse, worsening of disability (EDSS), MRI lesions” value in data set [4] (review Jagannath 2018) is reported as “no effect”.

For menaquinone [VK2], in data set [6] (given after the onset of EAE), the “efficacy in EAE” value was “not effective”. Besides, the “severity of EAE” value in data set [6] (prophylactic intraperitoneal administration, 62.5 mg/kg/d) is on record as “ameliorated the severity of EAE”. The “nerve growth factor-mediated neurite outgrowth” value in data set [5] is “promoting activity”.

As for “ocrelizumab: humanised monoclonal antibody that targets the CD20 marker on B lymphocytes”, the “patient's comparison of ocrelizumab with the combination therapy” value in data set [7] is “could not achieve what this combination therapy could”.
